Assay results reported in PubChem BioAssay (NCI).
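Grown in 96-well plates, cells were treated for 48 hours with each compound at five concentrations. Insufficient inhibition: endpoint recorded as highest concentration tested. GI50 = concentration required for 50% inhibition of growth. At the TGI there is no net growth.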

Tests used:
Assay in all cases: NCI anticancer screen, dose series, 48 h
HOP-62 NSCLC = test system: HOP-62 NSCLC
KM12 colon = test system: KM12 colon
HCT-15 colon = test system: HCT-15 colon
MOLT-4 leukemia = test system: MOLT-4 leukemia
MDA-MB-435 = test system: MDA-MB-435
NCI-H226 lung = test system: NCI-H226 lung
SF-539 CNS = test system: SF-539 CNS
SF-268 CNS = test system: SF-268 CNS
OVCAR-5 ovarian = test system: OVCAR-5 ovarian
OVCAR-8 ovarian = test system: OVCAR-8 ovarian
SK-MEL-2 melanoma = test system: SK-MEL-2 melanoma
BT-549 breast = test system: BT-549 breast
HCT-116 colon = test system: HCT-116 colon
HOP-92 NSCLC = test system: HOP-92 NSCLC
SN12C renal = test system: SN12C renal
SNB-19 CNS = test system: SNB-19 CNS
NCI-H522 lung = test system: NCI-H522 lung
NCI/ADR-RES ovarian = test system: NCI/ADR-RES ovarian
MDA-MB-231 breast = test system: MDA-MB-231 breast
NCI-H23 lung = test system: NCI-H23 lung
MALME-3M melanoma = test system: MALME-3M melanoma
PC-3 prostate = test system: PC-3 prostate
ACHN renal = test system: ACHN renal
U251 CNS = test system: U251 CNS
CAKI-1 renal = test system: CAKI-1 renal
K-562 leukemia = test system: K-562 leukemia
SK-OV-3 ovarian = test system: SK-OV-3 ovarian
UACC-257 melanoma = test system: UACC-257 melanoma
MCF7 breast = test system: MCF7 breast
T-47D breast = test system: T-47D breast
786-0 renal = test system: 786-0 renal
HS 578T breast = test system: HS 578T breast
HT29 colon = test system: HT29 colon
HL-60(TB) leukemia = test system: HL-60(TB) leukemia
COLO 205 colon = test system: COLO 205 colon
UO-31 renal = test system: UO-31 renal
M14 melanoma = test system: M14 melanoma
SNB-75 CNS = test system: SNB-75 CNS
RXF 393 renal = test system: RXF 393 renal
NCI-H460 lung = test system: NCI-H460 lung
SK-MEL-28 melanoma = test system: SK-MEL-28 melanoma
TK-10 renal = test system: TK-10 renal
A549 NSCLC = test system: A549 NSCLC
CCRF-CEM leukemia = test system: CCRF-CEM leukemia
EKVX NSCLC = test system: EKVX NSCLC
OVCAR-4 ovarian = test system: OVCAR-4 ovarian

`CC1CCC2C(CN(CC3=C(C(F)(F)F)OC4OC5(C)CCC6C(C)CCC3C46OO5)CC3=C(C(F)(F)F)OC4OC5(C)CCC6C(C)CCC3C46OO5)=C(C(F)(F)F)OC3OC4(C)CCC1C32OO4` (configuration not stated) was tested, and the GI50 (HOP-62 NSCLC) was 28.3 µM, the TGI (HOP-62 NSCLC) was 71.9 µM and the GI50 (KM12 colon) was 3.72 µM. For the same compound, the TGI (KM12 colon) was 10.1 µM, the GI50 (HCT-15 colon) was 10 µM and the TGI (HCT-15 colon) was 25.7 µM. The GI50 (MOLT-4 leukemia) was 9.11 µM, the TGI (MOLT-4 leukemia) was 39.9 µM and the GI50 (MDA-MB-435) was 4.54 µM. For the same compound, the TGI (MDA-MB-435) was 17.3 µM, the GI50 (NCI-H226 lung) was 19.4 µM and the TGI (NCI-H226 lung) was 57.8 µM. It also gave a GI50 (SF-539 CNS) of 11.9 µM, a TGI (SF-539 CNS) of 38.6 µM and a GI50 (SF-268 CNS) of 18.7 µM. The TGI (SF-268 CNS) was 48.4 µM, the GI50 (OVCAR-5 ovarian) was 15.3 µM and the TGI (OVCAR-5 ovarian) was greater than 100 µM. The GI50 (OVCAR-8 ovarian) was 14.1 µM, the TGI (OVCAR-8 ovarian) was 76.4 µM and the GI50 (SK-MEL-2 melanoma) was 36.6 µM. The TGI (SK-MEL-2 melanoma) was greater than 100 µM, the GI50 (BT-549 breast) was 13.1 µM and the TGI (BT-549 breast) was 34.1 µM. For the same compound, the GI50 (HCT-116 colon) was 11.6 µM, the TGI (HCT-116 colon) was 24.5 µM and the GI50 (HOP-92 NSCLC) was 6.3 µM. The TGI (HOP-92 NSCLC) was 33.4 µM, the GI50 (SN12C renal) was 18.7 µM and the TGI (SN12C renal) was 48.9 µM. For the same compound, the GI50 (SNB-19 CNS) was 30.8 µM, the TGI (SNB-19 CNS) was greater than 100 µM and the GI50 (NCI-H522 lung) was 16.2 µM. It also gave a TGI (NCI-H522 lung) of 42.2 µM, a GI50 (NCI/ADR-RES ovarian) of 26.8 µM and a TGI (NCI/ADR-RES ovarian) of 73.2 µM. It also gave a GI50 (MDA-MB-231 breast) of 13.4 µM, a TGI (MDA-MB-231 breast) of 36.6 µM and a GI50 (NCI-H23 lung) of 6.04 µM. It also gave a TGI (NCI-H23 lung) of 19.7 µM, a GI50 (MALME-3M melanoma) of 6.73 µM and a TGI (MALME-3M melanoma) of 23 µM. For the same compound, the GI50 (PC-3 prostate) was 3.99 µM, the TGI (PC-3 prostate) was 20.1 µM and the GI50 (ACHN renal) was 1.81 µM. It also gave a TGI (ACHN renal) of 3.49 µM, a GI50 (U251 CNS) of 5.12 µM and a TGI (U251 CNS) of 19.2 µM. The GI50 (CAKI-1 renal) was 5.87 µM, the TGI (CAKI-1 renal) was 18.4 µM and the GI50 (K-562 leukemia) was 5.58 µM. The TGI (K-562 leukemia) was 22.1 µM, the GI50 (SK-OV-3 ovarian) was 35.2 µM and the TGI (SK-OV-3 ovarian) was greater than 100 µM. The GI50 (UACC-257 melanoma) was 27.1 µM, the TGI (UACC-257 melanoma) was greater than 100 µM and the GI50 (MCF7 breast) was 20.9 µM. For the same compound, the TGI (MCF7 breast) was 59.9 µM, the GI50 (T-47D breast) was 3.97 µM and the TGI (T-47D breast) was 27.2 µM. The GI50 (786-0 renal) was 8.48 µM, the TGI (786-0 renal) was 21.9 µM and the GI50 (HS 578T breast) was 17.9 µM. It also gave a TGI (HS 578T breast) of 61.4 µM, a GI50 (HT29 colon) of 25.1 µM and a TGI (HT29 colon) greater than 100 µM. For the same compound, the GI50 (HL-60(TB) leukemia) was 3.12 µM, the TGI (HL-60(TB) leukemia) was 10.7 µM and the GI50 (COLO 205 colon) was 7.64 µM. The TGI (COLO 205 colon) was 28.6 µM, the GI50 (UO-31 renal) was 29.1 µM and the TGI (UO-31 renal) was greater than 100 µM. For the same compound, the GI50 (M14 melanoma) was 22.2 µM, the TGI (M14 melanoma) was 59.7 µM and the GI50 (SNB-75 CNS) was 81.6 µM. The TGI (SNB-75 CNS) was greater than 100 µM, the GI50 (RXF 393 renal) was 2.45 µM and the TGI (RXF 393 renal) was 22.4 µM. The GI50 (NCI-H460 lung) was 12.9 µM, the TGI (NCI-H460 lung) was 30 µM and the GI50 (SK-MEL-28 melanoma) was 30.1 µM. The TGI (SK-MEL-28 melanoma) was greater than 100 µM, the GI50 (TK-10 renal) was 15.4 µM and the TGI (TK-10 renal) was 30 µM. It also gave a GI50 (A549 NSCLC) of 12.1 µM, a TGI (A549 NSCLC) of 66.3 µM and a GI50 (CCRF-CEM leukemia) of 4.8 µM. The TGI (CCRF-CEM leukemia) was 28 µM, the GI50 (EKVX NSCLC) was 19.5 µM and the TGI (EKVX NSCLC) was 49.2 µM. The GI50 (OVCAR-4 ovarian) was 10.2 µM and the TGI (OVCAR-4 ovarian) was 33.4 µM.
